{"source": "patent US20120238549A1", "about": "“Nuclear Hormone Receptor Modulators” (ABBOTT LABORATORIES, priority 2011, published 2012)"}
{"biological_target": "T1, Glucocorticoid Receptor (GR) (Homo sapiens, UniProt P04150)", "T1 construct": "purchased Invitrogen P2893", "T1 sequence (P04150 1-777)": "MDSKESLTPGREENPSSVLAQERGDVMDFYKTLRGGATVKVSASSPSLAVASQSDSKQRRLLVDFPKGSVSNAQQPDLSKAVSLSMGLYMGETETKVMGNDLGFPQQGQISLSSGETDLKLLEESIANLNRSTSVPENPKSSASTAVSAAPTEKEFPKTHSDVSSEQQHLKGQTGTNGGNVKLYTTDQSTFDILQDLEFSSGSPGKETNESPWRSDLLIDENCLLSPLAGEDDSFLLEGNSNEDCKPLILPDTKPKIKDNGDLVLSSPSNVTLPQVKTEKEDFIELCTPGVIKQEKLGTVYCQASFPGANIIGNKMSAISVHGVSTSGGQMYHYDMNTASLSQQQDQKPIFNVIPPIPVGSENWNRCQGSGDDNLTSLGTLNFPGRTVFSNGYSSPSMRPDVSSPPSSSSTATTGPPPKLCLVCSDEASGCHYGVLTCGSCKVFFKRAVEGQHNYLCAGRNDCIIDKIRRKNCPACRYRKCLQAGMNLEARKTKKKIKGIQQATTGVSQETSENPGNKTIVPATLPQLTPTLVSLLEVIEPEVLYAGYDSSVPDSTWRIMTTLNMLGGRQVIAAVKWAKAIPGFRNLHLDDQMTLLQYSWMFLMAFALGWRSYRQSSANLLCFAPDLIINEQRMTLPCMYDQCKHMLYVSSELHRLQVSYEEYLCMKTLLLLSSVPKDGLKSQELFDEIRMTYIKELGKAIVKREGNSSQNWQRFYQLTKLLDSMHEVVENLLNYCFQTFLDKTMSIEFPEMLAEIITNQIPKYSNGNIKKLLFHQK", "assay": "GR Florescence Polarization Assay (PolarScreen Glucocorticoid Receptor Competitor Assay, Red)", "details": "Fluorescense polarization binding ranges; competition with fluorescent glucocorticoid, incubated overnight at 4° C.", "method_in_brief": "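Competitive fluorescence polarization using fluorescent glucocorticoid tracer and human GR in kit buffer. Compounds serially diluted 1:4 in DMSO, incubated with tracer and GR overnight at 4 °C before polarization read.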", "units": {"IC50": "nM"}}
{"compound": "Cc1ncccc1NC(=O)c1ccc2c(c1)COC[C@@H]1C[C@@](O)(C(F)(F)F)CC[C@@]21Cc1ccccc1", "note": "[Example 116, (7aR,9R,11aS)-11a-Benzyl-9-hydroxy-N-(2-methylpyridin-3-yl)-9-(trifluoromethyl)-5,7,7a,8,9,10,11,11a-octahydrodibenzo[c,e]oxepine-3-carboxamide]", "IC50": "100 to 1000"}
{"compound": "Cc1ncccc1NC(=O)c1ccc2c(c1)CN(C)C[C@@H]1C[C@@](O)(C(F)(F)F)CC[C@@]21Cc1ccccc1", "note": "[Example 117, (3R,4aR,11bS)-11b-Benzyl-3-hydroxy-6-methyl-N-(2-methylpyridin-3-yl)-3-(trifluoromethyl)-2,3,4,4a,5,6,7,11b-octahydro-1H-dibenzo[c,e]azepine-9-carboxamide]", "IC50": "100 to 1000"}
{"compound": "Cc1ncccc1NC(=O)c1ccc2c(c1)C(=O)CC[C@@H]1C[C@@](O)(C(F)(F)F)CC[C@@]21Cc1ccccc1", "note": "[Example 118, (7aR,9R,11aS)-11a-Benzyl-9-hydroxy-5-oxo-9-trifluoromethyl-6,7,7a,8,9,10,11,11a-octahydro-5H-dibenzo[a,c]cycloheptene-3-carboxylic acid (2-methyl-pyridin-3-yl)-amide]", "IC50": "< 100"}
{"compound": "CC[C@@]1(O)CC[C@@]2(Cc3ccccc3)c3ccc(C(=O)Nc4ccccc4N)cc3CCC[C@H]2C1", "note": "[Example 126, (7aS,9R,11aS)-11a-Benzyl-9-ethyl-9-hydroxy-6,7,7a,8,9,10,11,11a-octahydro-5H-dibenzo[a,c]cycloheptene-3-carboxylic acid (2-amino-phenyl)-amide]", "IC50": "< 100"}
{"compound": "CC[C@@]1(O)CC[C@@]2(Cc3ccccc3)c3ccc(-c4nc5ccccc5[nH]4)cc3CCC[C@H]2C1", "note": "[Example 127, (3R,4aS,11bS)-9-(1H-benzoimidazol-2-yl)-11b-benzyl-3-ethyl-2,3,4,4a,5,6,7,11b-octahydro-1H-dibenzo[a,c]cyclohepten-3-ol]", "IC50": "100 to 1000"}
{"compound": "CC[C@@]12CC[C@](O)(CCC(F)(F)F)C[C@@H]1CCCc1cc(C(=O)Nc3cccnc3C)ccc12.CC[C@]12CC[C@@](O)(CCC(F)(F)F)C[C@H]1CCCc1cc(C(=O)Nc3cccnc3C)ccc12", "note": "[Example 133, (7aS,9S,11aR)-11a-Ethyl-9-hydroxy-9-(3,3,3-trifluoro-propyl)-6,7,7a,8,9,10,11,11a-octahydro-5H-dibenzo[a,c]cycloheptene-3-carboxylic acid (2-methyl-pyridin-3-yl)-amide; compound with (7aR,9R,11aS)-11a-ethyl-9-hydroxy-9-(3,3,3-trifluoro-propyl)-6,7,7a,8,9,10,11,11a-octahydro-5H-dibenzo[a,c]cycloheptene-3-carboxylic acid (2-methyl-pyridin-3-yl)-amide]", "IC50": "< 100"}
{"compound": "CC[C@@]1(O)CC[C@@]2(CC)c3ccc(C(=O)Nc4cccnc4C)cc3COC[C@H]2C1", "note": "[Example 140]", "IC50": "100 to 1000"}
{"compound": "CC[C@]1(O)CC[C@]2(CC)c3ccc(C(=O)Nc4cccnc4C)cc3COC[C@@H]2C1", "note": "[Example 141]", "IC50": "> 10000"}
{"compound": "CC[C@@]1(O)CC[C@@]2(Cc3ccccc3)c3ccc(C(=O)Nc4cccc(N)c4)cc3CCC[C@H]2C1", "note": "[Example 142, (7aS,9R,11aS)-11a-Benzyl-9-ethyl-9-hydroxy-6,7,7a,8,9,10,11,11a-octahydro-5H-dibenzo[a,c]cycloheptene-3-carboxylic acid (3-amino-phenyl)-amide]", "IC50": "< 100"}
{"compound": "CC[C@@]1(O)CC[C@@]2(Cc3ccccc3)c3ccc(C(=O)Nc4ccc(N)cc4)cc3CCC[C@H]2C1", "note": "[Example 143, (7aS,9R,11aS)-11a-Benzyl-9-ethyl-9-hydroxy-6,7,7a,8,9,10,11,11a-octahydro-5H-dibenzo[a,c]cycloheptene-3-carboxylic acid (4-amino-phenyl)-amide]", "IC50": "< 100"}
{"compound": "CCC[C@@]1(O)CC[C@@]2(CC)c3ccc(C(=O)Nc4ccccc4Cl)cc3CCC[C@H]2C1", "note": "[Example 151, (7aS,9R,11aR)-11a-Ethyl-9-hydroxy-9-propyl-6,7,7a,8,9,10,11,11a-octahydro-5H-dibenzo[a,c]cycloheptene-3-carboxylic acid (2-chloro-phenyl)-amide]", "IC50": "< 100"}
{"compound": "(3R,4aR,11bR)-11b-benzyl-3-methyl-2,3,4,4a,5,6,7,11b-octahydro-1H-dibenzo[a,c]cycloheptene-3,9-diol; compound with (3S,4aS,11bS)-11b-benzyl-3-methyl-2,3,4,4a,5,6,7,11b-octahydro-1H-dibenzo[a,c]cycloheptene-3,9-diol [Example 7]", "IC50": "< 100"}
{"compound": "(3R,4aS,11bS)-11b-Benzyl-3-methyl-2,3,4,4a,5,6,7,11b-octahydro-1H-dibenzo[a,c]cycloheptene-3,9-diol; compound with (3S,4aR,11bR)-11b-benzyl-3-methyl-2,3,4,4a,5,6,7,11b-octahydro-1H-dibenzo[a,c]cycloheptene-3,9-diol [Example 6]", "IC50": "< 100"}
